The test system of the assay is Sickle cell red blood cells (SS RBCs). Briefly: Flow adhesion assay: sickle cell adhesion inhibition, RBCs perfused over TNF-α activated HUVEC monolayer. It is filed as cell-based. The settings on record: Homo sapiens; Table 1; SS RBCs treated with test compound at 100 μM, hypoxic condition 2 h; adhesion to TNF-α activated HUVEC monolayer under pulsatile flow; read-out: Inhibition (percentage of inhibition of cell adhesion). As to the method:
In still yet another embodiment, the present disclosure provides Sickle cell adhesion inhibition using Sickle cell red blood cells (SS RBCs). Flow adhesion assay are performed with commercial microfluidic-well plate and microfluidic flow adhesion system. Microfluidic channels are coated by perfusion (1 dyne/cm^2, 5 min) and incubated (37° C., 1 h) with 100 ng/ml Fibronectin. Channels are then perfused with complete media to remove unbound Fibronectin. Then a uniform monolayer of HUVEC cells is formed by profusing micro channels with the cell suspension at a pressure of 3 dyne/cm^2 for 5 sec and kept for 12 hours incubation to form monolayer. The HUVEC monolayer is activated 25 ng/ml of TNF-α and incubated (37° C., 4 h). Meanwhile Sickle cell red blood cell (SS RBCs) are treated with test compound at 100 μM concentration and incubated in hypoxic condition ([…], 5% CO2, 2 h). Flow condition for adhesion assay was pulsatile (1.67 Hz) flow (0.3 dyne/cm^2). For adhesion inhibition assay SS RBCs are diluted (2:50) in PBS. SS RBCs are perfused over HUVEC monolayer and incubated for 1 h. Unbound cells in micro channels are removed by perfusing complete media. Adherent cells are enumerated. Table 1 depicts percentage of inhibition when the compounds are tested at 100 μM concentration.
Flow adhesion assay were performed with commercial microfluidic-well plate and microfluidic flow adhesion system, Bio flux 200. Microfluidic channels were coated by perfusion (1 dyne/cm^2, 5 min) and incubated (37° C., 1 h) with 100 ng/ml Fibronectin. Channels were then perfused with complete media to remove unbound Fibronectin. Then a uniform monolayer of HUVEC cells was formed by profusing micro channels with the cell suspension at a pressure of 3 dyne/cm^2 for 5 sec and kept for 12 hours incubation to form monolayer. The HUVEC monolayer was activated 25 ng/ml of TNF-α and incubated (37° C., 4 h). Meanwhile RBCs were treated with test compound at 100 μM concentration and incubated in hypoxic condition ([…], 5% CO2, 2 h). Flow condition for adhesion assay was pulsatile (1.67 Hz) flow (0.3 dyne/cm^2). For adhesion inhibition assay RBCs were diluted (2:50) in PBS. RBCs were perfused over HUVEC monolayer and incubated for 1 h. Unbound cells in micro channels were removed by perfusing complete media. Adherent cells were enumerated.
On to `C[C@@H]1CC(=O)C=C2C=CCC[C@]21C` [Compound 21, (4R,4aS)-4,4a-dimethyl-4,4a,5,6-tetrahydronaphthalen-2(3H)-one], for which the inhibition at 100 µM worked out at 78%.
As for `C[C@@H]1CC=CC2=CC(=O)CC[C@]21C` [Compound 24, (4aS,5R)-4a,5-dimethyl-4,4a,5,6-tetrahydronaphthalen-2(3H)-one], the figure is 67%.
Under `C[C@@H]1CC(=O)C=C2C[C@@H](O)[C@@H](O)C[C@]21C` [Compound 28, (4R,4aS)-6,7-dihydroxy-4,4a-dimethyl-4,4a,5,6,7,8-hexahydronaphthalen-2(3H)-one] stands 56%; under `C[C@@H]1CC(=O)C=C2C=CC(=O)C[C@]21C` [Compound 29, (8R,8aS)-8,8a-dimethyl-1,7,8,8a-tetrahydronaphthalene-2,6-dione], 70%.
As for `C[C@@H]1C(=O)C=CC2=CC(=O)CC[C@]21C` [Compound 30, (1S,8aS)-1,8a-dimethyl-1,7,8,8a-tetrahydronaphthalene-2,6-dione], the figure is 72%.

Values taken from patent US11724995B2, “Decalin derivatives, a process for the preparation and pharmaceutical composition thereof” (Council of Scientific & Industrial Research, priority 2018, dated 2023).
